Experimental data from US11311567B2, “Cytochrome P450 enzyme complexes and methods of treatment using the same” (Innovation Hammer LLC, priority 2004, dated 2022).

Key:
[1] = basis for selecting preferred oxidants; cited from earlier work
human CPR (hCPR) = experiment: NADPH-dependent reduction of cytochrome C by CPR in microsomes after treatment with substrates; format: biochemical; settings: microsomes quantified against CPR and Cc; Cc oxidase activity inhibited by potassium cyanide
From the text: The following example illustrates an application of human P450 compositions according to the present invention. Procedures followed previously described methods, e.g., U.S. Pat. No. 6,020,288; M. Markwell, et al., Methods of Enzymology 72:296-303 (1981); C. A. Mihaliak, et al., Methods in plant biochemistry 19:261-279 (1993); R. Donaldson, et al., Arch. Biochem. Biophys. 152:199-215 (1972); and M. Persans, et al., Plant Physiol. 109:1483-1490 (1995)).
Methods. CPR substrates have been assayed on various tissues (e.g., U.S. Pat. No. 6,020,288); therefore, response to human CPR (hCPR) was examined under controlled conditions on live index organisms. The direct effects of substrates on hCPR were measured by preparation of microsomes for quantification against CPR and Cc. Controls included equal concentrations of each individual treatment or substrate in surfactant and water. Untreated controls were maintained under identical conditions of culture. Oxidase activity of Cc was inhibited by potassium cyanide. The reaction was initiated by addition of Cc wherein NADPH-dependent reduction of Cc was monitored for increases in absorbance.

| Compound | one-electron reduction potential (E0) [1] | induction relative to components tested (human CPR (hCPR)) |
| --- | --- | --- |
| O=C(O)CO [glycolate] | −290 mV | – |
| Cc1cc2nc3c(=O)[nH]c(=O)nc-3n(C[C@H](O)[C@H](O)[C@H](O)COP(=O)(O)O)c2cc1C [FMN, flavin mononucleotide] | −313 mV | over 4.5 times |
| nitrobenzoate | −396 mV | – |
